Key:
EPAC2 [1] = target: T1, EPAC2 (Mus musculus, UniProt Q9EQZ6); assay: 8-NBD-cAMP competition / primary screen fluorescence assay; type: binding; details: for dose response of EPAC2/8-NBD-cAMP fluorescence signal: dose-dependent response, Figure 2; for IC50: competition with 8-NBD-cAMP in binding to EPAC2
T1 construct: when titrated with purified full-length EPAC2; made in house
T1 sequence (Q9EQZ6 1-993 isoform Q9EQZ6-3): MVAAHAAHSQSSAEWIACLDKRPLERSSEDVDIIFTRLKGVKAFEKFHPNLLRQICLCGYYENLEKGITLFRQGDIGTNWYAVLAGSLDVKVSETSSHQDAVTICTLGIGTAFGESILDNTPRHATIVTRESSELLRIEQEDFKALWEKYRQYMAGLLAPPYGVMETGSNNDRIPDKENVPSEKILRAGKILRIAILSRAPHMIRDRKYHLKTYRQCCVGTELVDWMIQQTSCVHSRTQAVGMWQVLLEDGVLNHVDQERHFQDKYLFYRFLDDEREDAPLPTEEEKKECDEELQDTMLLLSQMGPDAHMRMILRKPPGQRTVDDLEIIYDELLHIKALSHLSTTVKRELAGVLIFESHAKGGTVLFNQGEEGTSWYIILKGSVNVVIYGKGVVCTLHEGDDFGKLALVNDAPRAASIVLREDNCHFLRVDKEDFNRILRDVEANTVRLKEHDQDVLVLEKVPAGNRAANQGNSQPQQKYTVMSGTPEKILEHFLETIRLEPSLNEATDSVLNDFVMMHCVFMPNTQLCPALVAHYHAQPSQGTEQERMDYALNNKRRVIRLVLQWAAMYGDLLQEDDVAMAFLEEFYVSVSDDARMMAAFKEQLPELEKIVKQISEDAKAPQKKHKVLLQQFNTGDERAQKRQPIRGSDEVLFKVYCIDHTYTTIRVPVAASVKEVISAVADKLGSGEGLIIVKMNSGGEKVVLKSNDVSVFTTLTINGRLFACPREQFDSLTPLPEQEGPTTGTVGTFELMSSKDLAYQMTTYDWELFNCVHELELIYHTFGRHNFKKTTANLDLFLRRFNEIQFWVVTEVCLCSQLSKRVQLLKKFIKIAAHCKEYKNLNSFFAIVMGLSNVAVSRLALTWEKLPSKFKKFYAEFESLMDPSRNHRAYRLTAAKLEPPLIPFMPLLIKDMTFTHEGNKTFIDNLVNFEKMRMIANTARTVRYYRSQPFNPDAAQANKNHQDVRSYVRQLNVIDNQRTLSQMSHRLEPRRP
Experimental: Primary screen of NCI DTP (Developmental Therapeutics Program) diversity set library was performed in black 96-well microplates from Corning Costar (Cambridge, MA, USA). Briefly, 50 nM EPAC2 solution was prepared in 20 mM Tris buffer, pH 7.5, containing 150 mM NaCl, 1 mM EDTA and 1 mM […]. […] Test compounds were added from 10 mM stock solutions in DMSO. […] Fluorescence intensity signal from 8-NBD probe was recorded at room temperature before and after tested compounds were added using SpectaMaxM2 microplate reader (Molecular Devices, Silicon Valley, CA, USA) with excitation/emission wavelengths set at 470/540 nm.

EPAC = details: cited from earlier work
EPAC2 [2] = target: T1, EPAC2; assay: EPAC2 GEF activity, Rap1 nucleotide exchange (secondary confirmation assay); type: biochemical; details: 25 µM compound in the presence of 25 µM cAMP
Experimental: Measurement of in vitro guanine nucleotide exchange factor (GEF) activity of EPAC was adapted from a well known fluorescence-based assay using a fluorescent guanine nucleotide analog, and used as a functional confirmation assay for the compounds identified from primary screen. […] Exchange of Mant-GDP by GDP was measured as a decrease in fluorescence intensity over time using a FluoroMax-3 spectrofluorometer with excitation/emission wavelengths set at 366/450 nm. Typically, decay in the fluorescence intensity was recorded over a time course of 6000 s with data points taken every 60 s.

type I PKA holoenzyme = target: T2, type I PKA holoenzyme (Homo sapiens, UniProt P10644); assay: Type I PKA holoenzyme kinase activity (counter screening assay); type: biochemical; details: 25 µM compound, 0.1 mM cAMP
T2 construct: made in house; host or cells: E. coli
T2 sequence (P10644 whole entry): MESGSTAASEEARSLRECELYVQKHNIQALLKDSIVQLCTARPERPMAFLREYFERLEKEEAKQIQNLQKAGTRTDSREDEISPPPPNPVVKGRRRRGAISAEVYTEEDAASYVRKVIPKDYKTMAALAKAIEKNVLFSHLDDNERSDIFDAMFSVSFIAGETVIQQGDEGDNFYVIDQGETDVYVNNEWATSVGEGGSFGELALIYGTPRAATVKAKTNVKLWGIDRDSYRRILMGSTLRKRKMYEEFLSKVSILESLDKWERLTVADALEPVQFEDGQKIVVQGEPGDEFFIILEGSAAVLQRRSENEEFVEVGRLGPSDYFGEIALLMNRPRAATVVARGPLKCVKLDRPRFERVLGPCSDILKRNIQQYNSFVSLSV
Experimental: (§1) Kinase activities of the type I and II PKA holoenzymes were measured spectrophotometrically in a 96-well plate with a coupled enzyme assay as described previously. In this assay, the formation of the ADP is coupled to the oxidation of NADH by the pyruvate kinase/lactate dehydrogenase reactions so the reaction rate can be determined by following the oxidation of NADH, reflected by a decrease in absorbance at 340 nm. […] Reactions were pre-equilibrated at room temperature and initiated by adding the Kemptide substrate (final concentration 0.26 mM). PKA activities measured in the presence of 25 µM H89, a selective PKA inhibitor, were used as positive controls of PKA inhibition.

type II PKA holoenzyme = target: T3, type II PKA holoenzyme (Homo sapiens, UniProt P31323); assay: Type II PKA holoenzyme kinase activity (counter screening assay); type: biochemical; details: 25 µM compound, 0.1 mM cAMP
T3 construct: made in house; host or cells: E. coli
T3 sequence (P31323 whole entry): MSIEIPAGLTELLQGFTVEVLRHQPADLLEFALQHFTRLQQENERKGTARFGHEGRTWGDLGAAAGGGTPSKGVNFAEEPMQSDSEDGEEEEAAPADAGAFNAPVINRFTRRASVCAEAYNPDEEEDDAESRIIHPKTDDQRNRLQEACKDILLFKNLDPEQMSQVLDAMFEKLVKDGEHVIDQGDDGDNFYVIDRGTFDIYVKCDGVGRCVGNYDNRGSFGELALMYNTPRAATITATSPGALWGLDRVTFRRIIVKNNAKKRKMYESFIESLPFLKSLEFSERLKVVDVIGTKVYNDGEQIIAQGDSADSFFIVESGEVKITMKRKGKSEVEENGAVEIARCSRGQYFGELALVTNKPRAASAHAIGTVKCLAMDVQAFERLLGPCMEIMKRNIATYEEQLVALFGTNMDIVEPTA
Experimental: as §1

SMILES | dose response of EPAC2/8-NBD-cAMP fluorescence signal (EPAC2 [1]) | IC50 (EPAC2 [1]) [µM] | inhibition of cAMP-mediated EPAC2 GEF activity (EPAC2 [2]) | also measured
Nc1ncnc2c1ncn2C1CC2OP(=O)(O)OCC2O1 (stereo not shown) [2′-deoxy-cAMP, reference compound] | minimal effects | – | – | –
CO[C@@H]1[C@@H]2OP(=O)(O)OC[C@H]2O[C@H]1n1c(Sc2ccc(Cl)cc2)nc2c(N)ncnc21 [8-CPT-2′-O-Me-cAMP, 8-(4-chloro-phenylthio)-2′-O-methyladenosine-3′,5′-cyclic monophosphate] | – | – | – | selectivity towards EPAC over PKA (EPAC): about 100 fold
Nc1ncnc2c1nc(Cl)n2[C@@H]1O[C@@H]2COP(=O)(O)O[C@H]2[C@H]1O [8-Cl-cAMP, reference compound] | significant dose-dependent inhibitions | – | – | –

More lines, main results first:

dose response of EPAC2/8-NBD-cAMP fluorescence signal (EPAC2 [1]) | IC50 (EPAC2 [1]) [µM] | SMILES | inhibition of cAMP-mediated EPAC2 GEF activity (EPAC2 [2]) | also measured
– | 1.7 | O=C1C=Cc2ccccc2C1=NNc1cccc2cc(S(=O)(=O)O)ccc12 [NSC45576] | inhibit EPAC2 GEF activity to basal levels | effect on cAMP-induced type I PKA holoenzyme activation (type I PKA holoenzyme): did not significantly alter; effect on cAMP-induced type II PKA holoenzyme activation (type II PKA holoenzyme): did not significantly alter
– | 3.8 | O=C1C=CC2=C(Oc3c(ccc(O)c3O)/C2=C/C=C(O)O)C1=O [NSC119911] | inhibit EPAC2 GEF activity to basal levels | type I PKA activity blocked (type I PKA holoenzyme): ~50%; type II PKA activity blocked (type II PKA holoenzyme): ~50%
– | 7.9 | N#Cc1c(NC(=O)C(F)(F)F)sc2c3c(=O)c4ccccc4c(=O)c=3oc3ccccc3c12 [NSC686365] | inhibit EPAC2 GEF activity to basal levels | effect on cAMP-induced type I PKA holoenzyme activation (type I PKA holoenzyme): did not significantly alter; effect on cAMP-induced type II PKA holoenzyme activation (type II PKA holoenzyme): did not significantly alter
minimal effects | – | O=c1[nH]c(=O)c2ncn(C3OC4COP(=O)(O)OC4C3O)c2[nH]1 (stereo not shown) [cXMP, reference compound] | – | –
